According to patent US6525001B1, “Substituted pyrimidine and pyridine herbicides” (Mid-American Commercialization Corporation, priority 1997, dated 2003):

Experiments:
Test in all cases: Test D
Type in all cases: in vivo
[1] = system: annual bluegrass (Poa annua); parameters: key: 0 is no effect; 100 is complete control; details: PREEMERGENCE
[2] = system: common poppy (Papaver rhoeas); parameters: key: 0 is no effect; 100 is complete control; details: PREEMERGENCE
[3] = system: field violet (Viola arvensis); parameters: key: 0 is no effect; 100 is complete control; details: PREEMERGENCE
[4] = system: galium 2 (Galium aparine); details: PREEMERGENCE
[5] = system: green foxtail (Setaria viridis); parameters: key: 0 is no effect; 100 is complete control; details: PREEMERGENCE
[6] = system: Italian ryegrass (Lolium multiflorum); details: PREEMERGENCE
[7] = system: jointed goatgrass (Aegilops cylindrica); details: PREEMERGENCE
[8] = system: littleseed canarygrass (Phalaris minor); details: PREEMERGENCE
[9] = system: Russian thistle (Salsola kali); details: PREEMERGENCE
[10] = system: sunflower (Helianthus annuus); parameters: key: 0 is no effect; 100 is complete control; details: PREEMERGENCE
[11] = system: wild buckwheat (Polygonum convolvulus); details: PREEMERGENCE
[12] = system: windgrass (Apera spica-venti); parameters: key: 0 is no effect; 100 is complete control; details: PREEMERGENCE
[13] = system: chickweed (Stellaria media); parameters: key: 0 is no effect; 100 is complete control; details: POSTEMERGENCE
Description: (§1) Compounds evaluated in this test were formulated in a non-phytotoxic solvent mixture which included a surfactant and applied to plants that were in the 1- to 4-leaf stage (postemergence application). A mixture of sandy loam soil and greenhouse potting mix in a 60:40 ratio was used for the postemergence test.
(§2) Plantings of these crops and weed species were adjusted to produce plants of appropriate size for the postemergence test. All plant species were grown using normal greenhouse practices. Crop and weed species include alfalfa (Medicago sativa), annual bluegrass (Poa annua), blackgrass (Alopecurus myosuroides), black nightshade (Solanum nigra), chickweed (Stellaria media), common poppy (Papaver rhoeas), deadnettle (Lamium amplexicaule), downy brome (Bromus tectorum), field violet (Viola arvensis), galium 2 (Galium aparine), green foxtail (Setaria viridis), Italian ryegrass (Lolium multiflorum), jointed goatgrass (Aegilops cylindrica), kochia (Kochia scoparia), lambsquarters (Chenopodium album), lentil (Lens culinaris), littleseed canarygrass (Phalaris minor), pea (Pisum sativum), potato (Solanum tuberosum), rape (Brassica napus), redroot pigweed (Amaranthus retroflexus), Russian thistle (Salsola kali), scentless chamomile (Matricaria inodora), sorghum (Sorghum vulgare), spring barley (Hordeum vulgare), sugar beet (Beta vulgaris), sunflower (Helianthus annuus), ivyleaf speedwell (Veronica hederaefolia), spring wheat (Triticum aestivum), winter wheat (Triticum aestivum), wild buckwheat (Polygonum convolvulus), wild mustard (Sinapis arvensis), wild oat (Avena fatua), windgrass (Apera spica-venti) and winter barley (Hordeum vulgare).
(§3) Treated plants and untreated controls were maintained in a greenhouse for approximately 21 to 28 days, after which all treated plants were compared to untreated controls and visually evaluated. Plant response ratings, summarized in Table D, are based upon a 0 to 100 scale where 0 is no effect and 100 is complete control. A dash response (−) means no test result.

[14] = system: deadnettle (Lamium amplexicaule); parameters: key: 0 is no effect; 100 is complete control; details: POSTEMERGENCE
Description: as §1, §2, §3

[15] = system: rape (Brassica napus); parameters: key: 0 is no effect; 100 is complete control; details: POSTEMERGENCE
Description: as §1, §2, §3

Row | SMILES | Plant response rating, Annual bluegras ([1]; Rate 31 g/ha) | Plant response rating, Annual bluegras ([1]; Rate 62 g/ha) | Plant response rating, Green foxtail ([5]; Rate 31 g/ha) | Plant response rating, Green foxtail ([5]; Rate 62 g/ha) | Plant response rating, I. Ryegrass ([6]; Rate 31 g/ha) | Plant response rating, I. Ryegrass ([6]; Rate 62 g/ha) | Plant response rating, Jointed goatgra ([7]; Rate 31 g/ha) | Plant response rating, Jointed goatgra ([7]; Rate 62 g/ha) | Plant response rating, LS canarygrass ([8]; Rate 31 g/ha) | Plant response rating, LS canarygrass ([8]; Rate 62 g/ha) | Plant response rating, Russian thistle ([9]; Rate 31 g/ha) | Plant response rating, Russian thistle ([9]; Rate 62 g/ha) | Plant response rating, Sunflower ([10]; Rate 31 g/ha) | Plant response rating, Sunflower ([10]; Rate 62 g/ha) | Plant response rating, Wild buckwheat ([11]; Rate 31 g/ha) | Plant response rating, Wild buckwheat ([11]; Rate 62 g/ha) | Plant response rating, Windgrass ([12]; Rate 31 g/ha) | Plant response rating, Windgrass ([12]; Rate 62 g/ha) | other results
1 | CCc1cnc(-n2ccc(C(F)(F)F)n2)nc1Cc1cccc(C(F)(F)F)c1 [Compound 46] | 60 | 90 | 80 | 100 | 60 | 60 | 50 | 60 | 70 | 90 | 30 | 30 | 10 | 30 | 40 | 40 | 40 | 100 | Plant response rating, Common poppy ([2]; Rate 31 g/ha): 100; Plant response rating, Common poppy ([2]; Rate 62 g/ha): 100; Plant response rating, Field violet ([3]; Rate 31 g/ha): 85; Plant response rating, Field violet ([3]; Rate 62 g/ha): 100; Plant response rating, Galium ([4]; Rate 31 g/ha): 60; Plant response rating, Galium ([4]; Rate 62 g/ha): 60
2 | Cc1cnc(-n2ccc(C(F)(F)F)n2)nc1Cn1ccc(C(F)(F)F)n1 [Compound 52] | 50 | 100 | 50 | 80 | 30 | 70 | 30 | 40 | 30 | 60 | 30 | 85 | 0 | 0 | 40 | 60 | 80 | 100 | Plant response rating, Chickweed ([13]; Rate 16 g/ha): 30; Plant response rating, Chickweed ([13]; Rate 31 g/ha): 50; Plant response rating, Chickweed ([13]; Rate 62 g/ha): 70; Plant response rating, Chickweed ([13]; Rate 125 g/ha): 80; Plant response rating, Deadnettle ([14]; Rate 16 g/ha): 45; Plant response rating, Deadnettle ([14]; Rate 31 g/ha): 100; Plant response rating, Deadnettle ([14]; Rate 62 g/ha): 100; Plant response rating, Deadnettle ([14]; Rate 125 g/ha): 98; Plant response rating, Rape ([15]; Rate 16 g/ha): 65; Plant response rating, Rape ([15]; Rate 31 g/ha): 65; Plant response rating, Rape ([15]; Rate 62 g/ha): 98; Plant response rating, Rape ([15]; Rate 125 g/ha): 85; Plant response rating, Annual bluegras ([1]; Rate 125 g/ha): 100; Plant response rating, Green foxtail ([5]; Rate 125 g/ha): 100; Plant response rating, I. Ryegrass ([6]; Rate 125 g/ha): 70; Plant response rating, Jointed goatgra ([7]; Rate 125 g/ha): 40; Plant response rating, LS canarygrass ([8]; Rate 125 g/ha): 90; Plant response rating, Russian thistle ([9]; Rate 125 g/ha): 85; Plant response rating, Sunflower ([10]; Rate 125 g/ha): 0; Plant response rating, Windgrass ([12]; Rate 125 g/ha): 100
